Tests used:
[1] = Peak absorption and fluorescence emission wavelengths in solvents; type: physicochemical; conditions: for λem(max)/nm: 100 nM, excitation at peak of absorption; for λabs(max)/nm: 10 μM
Procedure: Peak absorption and fluorescence emission wavelengths of compounds 6, 7, 12, 13, 14, 15, 19, 23, 27, 30 and 34 were measured in a variety of solvents, and the results are shown in Table 1. Absorption measurements were recorded at a concentration of 10 μM, and emission measurements were recorded at a concentration of 100 nM. Emission spectra were recorded with excitation at the peak of absorption (S0→S1).

HaCaT keratinocytes = experiment: Co-staining with organelle markers, co-localisation (PCC); type: cell-based; conditions: 1 μM compound, 30 minutes, BODIPY ER-Tracker Red
Procedure: To study the localisation of compounds in biological cells, co-staining of compounds of formula I with specific organelle markers (fluorescent dyes and antibodies) within biological cells was conducted. The following compounds were studied: compounds 6, 7, 12, 13, 14 and 15. HaCaT keratinocyte cell lines were used for the following experimental procedures. The cells were incubated in cell culture media (94% Dulbecco's Modified Eagle Medium (DMEM), 5% Foetal Bovine Serum (FBS) and 1% Penicillin Streptomycin solution (Pen-Strep). The cells were plated in 8-well plates, at a concentration of 25,000 cells per ml. 200 μl of cell suspension was added to each well, and the cells were incubated for 2 days before staining and imaging was carried out. In order to visualise the mitochondria, cells were probed with the mitochondrial dye MitoTracker® Deep Red. Cells to be stained were incubated with 200 μl MitoTracker® Deep Red solution (200 nM MitoTracker® and 1 μM Formula I compound in cell culture media) per well (N=3) for 30 minutes. Nile Red was used to identify lipids within the cells. 200 μl Nile Red Lipophilic dye (10 μg/ml Nile Red and 1 μM Formula I compound in cell culture media) was added to each well (N=3) and incubated for 30 minutes. For the detection of lysosomes within the cells, LysoTracker® Red DND-99 dye was used. 200 μl LysoTracker® Red DND-99 (50 nM LysoTracker® and 1 μM Formula I compound solution in cell culture media) was added to each well (N=3) and incubated for 30 minutes. For visualisation of the endoplasmic reticulum (ER), cells were stained with BODIPY® ER-Tracker® Red. 200 μl BODIPY ER-Tracker® Red (1 μM BODIPY® and 1 μM Formula I compound solution in cell culture media) was added to each well (N=3) and incubated for 30 minutes. Following incubation, the cell culture media containing dye was removed, and cells were washed twice with 200 μl phosphate buffered saline (PBS). After washing, 200 μl PBS was added into each well for imaging. For visualisation of the nuclear lamina, cells were probed with an anti-lamin A/C antibody. The cells were plated on 22×22 mm cover slips (10,000 cells/ml) and incubated for 2 days before staining. The cells were washed with PBS to remove excess media before staining. The cells were fixed with 4% paraformaldehyde (PFA) for 10 minutes at room temperature, before being washed twice in PBS for 5 minutes. Following washing, the cells were permeabilised in 0.4% Triton X-100 in PBS for 10 minutes. The cells were subsequently washed three times in PBS for 5 minutes, before being incubated in blocking buffer (1% BSA, 0.1% fish gelatine and 0.1% Triton X-100 in PBS) for 15 minutes at room temperature. The cells were incubated in primary antibody (mouse anti-lamin A/C IgG in blocking buffer) for 1 hour at room temperature. The cells were then washed twice in blocking buffer and incubated in secondary antibody (anti-mouse Alexa-594 IgG in blocking buffer) for 30 minutes at room temperature. Cells were washed twice in PBS for 10 minutes at room temperature. For cell staining with compounds of formula I, 5 μM of the compound of formula I in PBS was added to the cells for 30 minutes at room temperature. Cells were then washed five times for 5 minutes in PBS. Following washing, the cells were mounted onto non-charged microscopy slides using 6 μl Mowiol® per cover slip as mounting media. A Zeiss 880 confocal microscope was used for all the imaging work. [table] Image) Coloc2 software was used to calculate co-localization statistics between the compounds of formula I and the organelle marker images. The background was subtracted from each image and a region of interest (ROI) was used to target the analysis. The point spread function (PSF) of each image was calculated as 2.0 and Coastes' iterations was set to 100. The statistic quantified was the Pearson's Correlation Coefficient (PCC). PCC gives a number ranging from +1 to −1:1=perfect co-localisation; 0=no relationship; and, −1=perfect anti-co-localisation. […]

S. epidermidis [2] = experiment: Overnight growth curve (OD 600 nm) cytotoxicity assay, S. epidermidis; type: cell-based, Staphylococcus epidermis
Procedure: A sample of S. epidermidis was taken from a plate culture and inoculated into Luria Broth to culture overnight at 30° C. for approximately 16 hours.
Samples were incubated in darkness at room temperature for approximately 2 hrs. A black clear bottom Costar™-96 well plate was then filled, with 200 μl of sample in each well Cells were irradiated for 5 minutes at approximately 15 mW/cm^2. The cytotoxicity of the compounds without irradiation was also assessed.
The 96 well plate was put into the plate reader and set up to run a growth curve protocol using the following parameters: • Incubation temperature: 37° C. • OD read wavelength 600 nm • 250 cycles, readings every 5 rains • Shaking for 5 s pre-reading
This was left to run overnight to obtain kinetic growth curves based on optical density readings.

Bacillus subtilis = experiment: Overnight growth curve (OD 600 nm) cytotoxicity assay, B. subtilis; type: cell-based
Procedure: A sample of B. subtilis was taken from a plate culture and inoculated into Luria Broth to culture overnight at 37° C. for approximately 16 hours. [table] Samples were incubated in darkness at room temperature for approximately 2 hrs. A black clear bottom Costar™-96 well plate was then filled, with 200 μl of sample in each well Cells were irradiated for 5 minutes at approximately 15 mW/cm^2. The cytotoxicity of the compounds without irradiation was also assessed. The 96 well plate was put into the plate reader and set up to run a growth curve protocol using the following parameters: • Incubation temperature: 37° C. • OD read wavelength 600 nm • 250 cycles, readings every 5 rains • Shaking for 5 s pre-reading This was left to run overnight to obtain kinetic growth curves based on optical density readings.

S. epidermidis [3] = experiment: Baclight staining (propidium iodide / Syto 9), widefield imaging, S. epidermidis; type: cell-based, Staphylococcus epidermis; conditions: 1 μM
Procedure: Samples prepared according to Table 9 were treated with compounds by diluting 10 mM of stock solution in media to make a 100 μM concentration. This solution was then further diluted 1:10 and 1:100 in media to make 10 μM and 1 μM media solutions containing the compound. 50 μl of cell culture were then added to the 100 μM, 10 μM and 1 μM compound-containing media preparations. Following the treatment outlined in Table 9, each of the three bacterial strains were stained using a Baclight™ staining kit containing separate solutions of Syto™ 9 and Propidium Iodide. One extra sample treated with 0.1 μM of each compound was also included in this assay. M. smegmatis, S. epidermis and B. subtilis were stained with propidium iodide to show non-viable cells and with Syto 9 to show all cells. The following staining procedure was used: • 1. 1 ml of each sample was eluted into a well of a 12-well plate; • 2. One half of the 12 well plate was irradiated at approximately 15 mW/cm^2 for 5 mins; • 3. The content of each well was eluted into separate Eppendorfs and centrifuged at 10,000 r.p.m for 3 rains to form a culture pellet; • 4. Media was then removed, and each pellet resuspended in 200 μl of 1× PBS before being centrifuged at 10,000 r.p.m. for 3 mins. • 5. A preparation of Baclight™-staining solution was made using 1 ml 1× PBS, 3 μl propidium iodide and 3 μl Syto™ 9; • 6. […]

With CC(C)(C)OC(=O)/C=C/c1ccc(C#Cc2ccc(N3CCNCC3)cc2)cc1 [Compound 6, tert-butyl (2E)-3-(4-{2-[4-(piperazin-1-yl)phenyl]ethynyl}phenyl)prop-2-enoate] the “λem(max)/nm” value ([1]; DCM) was 550 nm, the “λabs(max)/nm” value ([1]; DCM) was 368 nm and the “λem(max)/nm” value ([1]; Toluene) was 482 nm. For the same compound, the “λabs(max)/nm” value ([1]; Toluene) was 358 nm, the “average PCC Value with BODIPY ER-Tracker” value (HaCaT keratinocytes) was 0.48 and the “lag phase of growth of S. epidermidis, photoactivated” value (S. epidermidis [2]; 1 μM, 405 nm, 5 min, approximately 15 mW/cm^2, untreated lag around 2 hrs) was “around 15 hrs”. For the same compound, the “growth of S. epidermidis, non-photoactivated” value (S. epidermidis [2]; 1 μM, not irradiated) was “minor impact on growth by extended lag phase”, the “growth of S. epidermidis” value (S. epidermidis [2]; 100 and 10μ concentrations, with or without photoactivation) was “no growth is evident regardless of any photoactivation” and the “growth of B. subtilis” value (Bacillus subtilis; 10 μM, effect much more significant in the radiated sample) was “growth is reduced and lag time extended”. For the same compound, the “growth of B. subtilis, radiated” value (Bacillus subtilis; 5 and 1 μM, 405 nm, 5 min) was “some growth inhibition” and the “non-viable (red, propidium iodide) cells compared with untreated controls” value (S. epidermidis [3]) was “increase in red fluorescent cells”.

— patent US20220347299A1, “FLUORESCENT SYSTEMS FOR BIOLOGICAL IMAGING AND USES THEREOF” (LIGHTOX LIMITED, priority 2019, published 2022)
